Assay results as given in patent publication US20240238281A1, “PIPERAZINE DERIVATIVES AND APPLICATION THEREOF” (priority 2021, published 2024).
“Also recorded” adds a separate entry of the source. Where two headings read alike, the source gives them in different places.

Tests used:
[1] = Drug concentration in brain tissues of rats, intravenous injection; assay type: in vivo, SD rats; details: rat, i.v. 2 mg/kg
Experimental: 3.1 6 healthy SD rats of 6-9 weeks old were selected, and the test compound was administered via intravenous injection. Two animals were randomly selected at 0.5 hour, 2 hours and 4 hours after administration respectively, and plasma and brain tissue samples were collected, and the quantitative assay of all biological samples was performed using the LC-MS/MS method.

[2] = Pharmacokinetic parameters in rat plasma; assay type: in vivo, SD rats; details: SD
Experimental: 4 healthy SD rats of 6-9 weeks old were selected and randomly divided into two groups, 2 rats in each group. One group was administered with the test compound via intravenous injection, with 5% DMSO+95% (a 10% HP-β-CD aqueous solution) as a solvent, and the other group was administered with the test compound by gavage, with a 50 mM citric acid buffer solution at pH=5 as a solvent. Plasma samples were collected from animals in both intravenous and intragastric groups at 0.083 hour, 0.25 hour, 0.5 hour, 1.0 hour, 2.0 hours, 4.0 hours, 6.0 hours, 8.0 hours and 24 hours after administration, respectively. Quantitative analysis of all biological samples was performed using an LC-MS/MS method, with WinNonlin™ Version 6.3 (Pharsight, Mountain View, CA) pharmacokinetic software, to calculate relevant pharmacokinetic parameters using a […] model linear logarithmic trapezoid method. AUCo-last represented an area under a plasma concentration time curve from a time point zero to a last time point where the concentration can be detected; p.o. represented oral administration; i.v. represented intravenous injection; T1/2 represented the half life; CL represented the clearance rate; Vd represented the apparent distribution volume; AUC0-last represented the area under the curve; Cmax represented the peak concentration; Tmax represented the peak time; and F % represented oral bioavailability.

MDR1-MDCKII cells = assay: In vitro MDCK-MDR1 permeability; assay type: in vitro ADME; details: MDR1-MDCKII permeability and efflux rating
Experimental: (§1) MDR1-MDCKII cells (from the Netherlands Cancer Institute) were inoculated onto a 96-plate (from Corning) with a cell density of 2.5×10^5 cells/mL, and cultured for 4-7 days to form a co-polymeric cell monolayer. A Hank's equilibrium salt buffer (pH=7.40±0.05) containing 10 mM of 4-hydroxyethyl piperazine ethanesulfonic acid was used as a transport buffer. The bidirectional transport of the test compound at a concentration of 2 μM was tested, and the concentration of DMSO in the incubation system was controlled below 1%. After sample loading, the cell plate was placed at 37±1° C. for inoculation with 5% CO2 under a saturated humidity condition for 150 minutes. All samples were subjected to quantitative analysis using the LC-MS/MS method.
(§2) The apparent permeability coefficient (Papp, cm/s), the efflux ratio, and the recovery rate were calculated using the following formula.
(§3) The apparent permeability coefficient (Papp, cm/s) was calculated using the following formula: […]
(§4) DC/dt was the cumulative concentration (μM/s) of the compound at the receiving end per unit time; Vr was the volume of the solution at the receiving end (the solution volumes at the top and base ends were 0.075 mL and 0.250 mL, respectively); A was the relative surface area of the cell monolayer (0.0804 cm^2); and C0 was the initial concentration (nM) of a test sample at the administration end or the peak area ratio of a control sample.
(§5) The efflux ratio was calculated using the following formula: […]
(§6) The recovery rate was calculated using the following formula: […]
(§7) C0 was the initial concentration (nM) of the test sample at the administration end or the peak area ratio of the control sample; Vd was the volume of the administration end (0.075 mL on the top side and 0.250 mL on the base side); Cd and Cr were the final concentrations (nM) of the test sample at the administration end and the receiving end, or the peak area ratios of the control sample , respectively.

MDR1 = assay: In vitro MDCK-MDR1 permeability; assay type: in vitro ADME; details: dog, MDCK-MDR1, pH 7.4, MDR1-MDCKII monolayer, 2 μM, 150 minutes
Experimental: as §1, §2, §3, §4, §5, §6, §7

MC1R = target: T1, MC1R (Homo sapiens, UniProt Q01726); assay: In vitro activity of MCR receptors, intracellular cAMP signal (HEK293T/MCR cell line), MC1R; assay type: cell-based; details: cAMP, HEK293T/MCR cell line; read-out: MC1R EC50
T1 construct: expressed in transfected cells
Experimental: Test purpose: to evaluate the agonistic effect of the compound on MCRs by detecting intracellular cAMP signal changes.
Cells were resuspended with 1×PBS+500 μM IBMX. 10 μL of the cell suspension was added into a 384-well plate to be tested, and the cell concentration was adjusted to 1×10^4 cells per well for later use. A pre-prepared solution of the compound to be tested was added, and dimethyl sulfoxide of the same volume was added to blank control wells. The test plate was centrifuged at 300 rpm for 1 minute, incubated at 37° C. for 30 minutes, and added with 5 μL of cAMP-d2 and 5 μL of a CAMP-cry antibody detection reagent. The test plate was centrifuged at 300 rpm for 1 minute, and incubated at room temperature for 60 minutes.

[3] = Drug concentration in brain tissues of rats, oral gavage; assay type: in vivo; details: SD, rat, p.o. 20 mg/kg
Experimental: 3.2 6 healthy SD rats of 6-9 weeks old were selected, and the test compound was administered by oral gavage (with a solvent of 50 mM citrate buffer solution, pH=5). Two animals were randomly selected at 0.5 hour, 1 hour and 4 hours after administration respectively, and plasma and brain tissue samples were collected for quantitative analysis of all biological samples using the LC-MS/MS method.

T1 sequence (Q01726 whole entry): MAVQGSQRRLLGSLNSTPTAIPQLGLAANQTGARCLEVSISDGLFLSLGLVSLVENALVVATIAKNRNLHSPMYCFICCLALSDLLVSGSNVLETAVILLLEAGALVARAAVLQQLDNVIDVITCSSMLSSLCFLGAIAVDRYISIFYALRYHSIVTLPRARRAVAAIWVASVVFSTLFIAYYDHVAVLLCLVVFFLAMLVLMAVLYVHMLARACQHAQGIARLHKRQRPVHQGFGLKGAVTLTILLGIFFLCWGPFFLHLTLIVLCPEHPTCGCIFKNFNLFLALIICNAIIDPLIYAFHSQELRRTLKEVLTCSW

concentration at 0.5 h ([1]; SD, brain, iv, 0.5 hour, read-out: Brain drug concentration): 2830 nM | concentration at 2 h ([1]; SD, brain, iv, 2 hours, read-out: Brain drug concentration): 965 nM | Kp at 0.5 h ([1]; SD, brain/plasma, iv, 0.5 hour, read-out: Brain-to-blood ratio): 7.8 | Kp at 2 h ([1]; SD, brain/plasma, iv, 2 hours, read-out: Brain-to-blood ratio): 6.9 | concentration at 0.5 h ([1]; SD, plasma, iv, 0.5 hour, read-out: Plasma drug concentration): 362 nM | concentration at 2 h ([1]; SD, plasma, iv, 2 hours, read-out: Plasma drug concentration): 141 nM | Brain drug concentration (nmol/L) ([1]; 4 hours): BQL | Plasma drug concentration (nmol/L) ([1]; 4 hours): BQL | AUC(0-t) ([2]; iv, i.v. 2 mg/kg): 0.897 µM·h | Vd ([2]; iv, i.v. 2 mg/kg): 8 L/kg | clearance ([2]; iv, i.v. 2 mg/kg): 73 mL/min/kg | half-life ([2]; iv, i.v. 2 mg/kg): 1.5 h | bioavailability ([2]; p.o. 5 mg/kg, oral bioavailability): 37% | AUC(0-t) ([2]; po, p.o. 5 mg/kg): 0.796 µM·h | Cmax ([2]; po, p.o. 5 mg/kg): 195 nM | Tmax ([2]; po, p.o. 5 mg/kg): 1 h | efflux ratio at 150 min, 2 μM (MDR1): 0.98 | Papp A→B at 150 min, 2 μM (MDR1; pH 7.40): 13.5 ×10⁻⁶ cm/s | Papp B→A at 150 min, 2 μM (MDR1; pH 7.40): 13.2 ×10⁻⁶ cm/s | EC50 (MC1R): 0.459 µM | concentration at 0.5 h ([3]; brain, 0.5 hour, read-out: Brain drug concentration): 8600 nM | concentration at 1 h ([3]; brain, 1 hour, read-out: Brain drug concentration): 9680 nM | concentration at 4 h ([3]; brain, 4 hours, read-out: Brain drug concentration): 11400 nM | Kp uu at 0.5 h ([3]; brain/plasma, 0.5 hour): 1.5 | Kp at 0.5 h ([3]; brain/plasma, 0.5 hour, read-out: Brain-to-blood ratio): 11 | Kp uu at 1 h ([3]; brain/plasma, 1 hour): 1.5 | Kp at 1 h ([3]; brain/plasma, 1 hour, read-out: Brain-to-blood ratio): 10.8 | Kp uu at 4 h ([3]; brain/plasma, 4 hours): 1.3 | Kp at 4 h ([3]; brain/plasma, 4 hours, read-out: Brain-to-blood ratio): 9.5 | concentration at 0.5 h ([3]; plasma, 0.5 hour, read-out: Plasma drug concentration): 783 nM | concentration at 1 h ([3]; plasma, 1 hour, read-out: Plasma drug concentration): 899 nM | concentration at 4 h ([3]; plasma, 4 hours, read-out: Plasma drug concentration): 1200 nM
Structure (SMILES): C[C@@H]1CN(C(=O)[C@@H]2CN(C3CCOCC3)C[C@H]2c2ccc(F)cc2F)C[C@H](C)N1c1ccc(F)cc1 (single isomer, unassigned) [Compound 7]
Rating (MDR1-MDCKII cells): High permeability,; also recorded: low efflux
